Read-outs that look alike come from different tables or passages of the source.
How the values were obtained:
Assay type in all cases: cell-based
[1] = tested on: phosphorylated ERK (Thr202/Tyr204) in NCI-H358 cells expressing mutant RAS(G12C); assay: Inhibition of RAS-mediated signal transduction: phosphorylated ERK ELISA in NCI-H358 cells
Method: The cells were treated with or without the compound of the present disclosure (dimethyl sulfoxide, DMSO), and the final concentration of DMSO was guaranteed to be 0.5%. After 2 hours of treatment, the medium was removed and 4% paraformaldehyde (Beyotime catalog number E672002-0100) was added and left to stand for 20 minutes. Cells were washed with PBS after fixation and incubated with precooled methanol for 10 min to permeabilize the cell membrane.
The level of phosphorylated ERK was detected using an enzyme linked immunosorbent assay (ELISA) method. […] The plates were washed 5 times with PBS containing 0.05% Tween 20. […] The reaction was stopped by adding 1 mol/L H2SO4, and the OD value was read at 450 nm by EnVision (PerkinElmer).
The total number of cells per well was detected by Janus Green B staining method. After detecting the level of phosphorylated ERK, the 96-well plate was washed with PBS until colorless, and 0.1% Janus Green B (Abcam catalogue number ab111622) was added to incubate for 10 minutes. After the 96-well plate was washed with double distilled water, 0.1 mol/L HCl was added, then the mixture was shaked and incubated for 10 minutes. The OD value was read at 595 nm by EnVision (PerkinElmer).
The signal of pERK (Thr202/Tyr204) was normalized by the signal value of Janus Green B, and the inhibition percentage after drug treatment relative to DMSO reference was calculated. The percentage values were fitted by a four-parameter dose-response curve and generated IC50 values.

[2] = tested on: NCI-H358 cells expressing KRAS-G12C; assay: Growth inhibition of tumor cell line expressing KRAS-G12C (Cell Titer Glo), NCI-H358
Method: (§1) The ability of the compounds of the present disclosure to inhibit the growth of cells expressing KRAS-G12C was evaluated by measuring the cell viability and calculating the GI50 values.
(§2) The tumor cell line NCI-H358 (ATCC catalogue number CRL-5807) expressing KRAS-G12C was cultured in RPMI medium supplemented with 10% fetal bovine serum and penicillin/streptomycin, and the tumor cell line MIA PaCa2 (ATCC CRL-1420) expressing KRAS-G12C was cultured in DMEM medium supplemented with 10% fetal bovine serum, 2.5% horse serum, and penicillin/streptomycin.
(§3) Cells NCI-H358 and MIA-Paca2 were inoculated into black transparent bottom 384-well plate (PerkinElmer catalogue number 6007460) with cell density of 1000 and 800 respectively, and the cells were allowed to adhere to the wall overnight (8-12 hours). After the cells adhered to the wall, the experimental group was added with the compound of the present disclosure diluted 5 times the concentration of the working solution (final concentration containing 0.1% dimethyl sulfoxide, i.e. DMSO); the control group was added with the same dilution as the experimental group (final concentration containing 0.1% DMSO). After 72 hours, Cell Titer Glo reagent (Promega catalogue number G7572) was used to detect ATP content according to the instruction method to determine the amount of cell proliferation. The brief operation steps were as follows: the cell plate was taken out and kept at normal temperature for equilibrium for 30 minutes; Cell Titer Glo reagent with the same volume as the culture was added; the culture plate was placed on a shaker for shaking and cracking for 2 minutes; the culture plate was left to stand at room temperature for 10 minutes; then the light signal value was read by microplate reader EnVision (PerkinElmer).
(§4) Data from all experimental groups were used to calculate the respective percent inhibition using the DMSO group, and the GI50 was calculated using the data processing software GraphPad to analyze the inhibition rates produced by the 9 compound dose concentrations diluted at ⅓-fold ratio.

[3] = tested on: MIA PaCa2 cells expressing KRAS-G12C; assay: Growth inhibition of tumor cell line expressing KRAS-G12C (Cell Titer Glo), MIA PaCa2
Method: as §1, §2, §3, §4

[4] = Homo sapiens, NCI-H358, 2 h, NCI-H358 cells, 2 hours of treatment, pERK normalized by Janus Green B, read-out: p-ERK IC50 (NCI H358)
[5] = Homo sapiens, MIA PaCa-2, 72 h, MIA-Paca2, 72 hours
[6] = NCI-H358 cells, 2 hours of treatment, pERK normalized by Janus Green B, read-out: p-ERK IC50 (NCI H358)

| Compound | GI50 ([2]; Homo sapiens, NCI-H358, 72 h) | GI50 [3, 5] | IC50 [1, 6] | GI50 ([2]; NCI-H358, 72 hours) | GI50 ([3]; MIA-Paca2, 72 hours) | also measured |
| --- | --- | --- | --- | --- | --- | --- |
| C=CC(=O)N1C[C@@H]2C(=O)N(C)c3c(c4cc(Cl)c(-c5c(F)cccc5OC)c(F)c4n(-c4c(C)ccnc4C(C)C)c3=O)N2C[C@H]1C [Compound 42A] | 9 nM | 228 nM | – | – | – | IC50 [1, 4]: 0.009 µM |
| C=CC(=O)N1C[C@@H]2CN(CCO)c3c(c4cc(F)c(-c5c(O)cccc5F)c(F)c4n(-c4c(C)ccnc4C(C)C)c3=O)N2C[C@H]1C [Compound 36A-1] | 32 nM | 235 nM | – | – | – | IC50 [1, 4]: 0.016 µM |
| C=CC(=O)N1CCN(c2ncnc3c(F)c(-c4c(O)cccc4F)c(Cl)cc23)CC1 [ARS-1620] | – | – | – | – | – | IC50 ([1]; Homo sapiens, NCI-H358, 2 h, read-out: p-ERK IC50 (NCI H358, μM)): 0.325 µM; GI50 ([2]; Homo sapiens, NCI-H358, 72 hours): 510 nM; GI50 ([3]; Homo sapiens, MIA PaCa-2, MIA-Paca2, 72 hours): 1210 nM |
| C=CC(=O)N1C[C@@H]2COc3c(c4cc(F)c(-c5c(O)cccc5F)c(F)c4n(-c4c(C)ccnc4C(C)C)c3=O)N2C[C@H]1C [Compound 3B] | – | – | 0.008 µM | 8 nM | 39 nM | – |
| C=CC(=O)N1CC2C(=O)Nc3c(c4cc(F)c(-c5c(O)cccc5F)c(F)c4n(-c4c(C)ccnc4C(C)C)c3=O)N2CC1C (single isomer, unassigned) [Compound 22A-2] | – | – | 0.054 µM | 42 nM | 119 nM | – |
| C=CC(=O)N1CC2C(=O)N(CCN(C)C)c3c(c4cc(F)c(-c5c(O)cccc5F)c(F)c4n(-c4c(C)ccnc4C(C)C)c3=O)N2CC1C (stereo not drawn) [Compound 24B] | – | – | 0.075 µM | 68 nM | 112 nM | – |
| C=CC(=O)N1C[C@@H]2COc3c(c4cc(Cl)c(-c5c(O)cccc5F)c(F)c4n(-c4c(C)ccnc4C(C)C)c3=O)N2C[C@H]1C [Compound 18A] | – | – | 0.005 µM | 6 nM | 13 nM | – |
| C=CC(=O)N1C[C@@H]2CN(C)c3c(c4cc(Cl)c(-c5c(O)cccc5F)nc4n(-c4c(C)ccnc4C(C)C)c3=O)N2C[C@H]1C [Compound 8] | 22 nM | 37 nM | – | – | – | IC50 [1, 4]: 0.024 µM |
| C=CC(=O)N1C[C@@H]2C(=O)N(C)c3c(c4cc(F)c(-c5c(C)ccc6[nH]nc(N)c56)c(F)c4n(-c4c(C)ccnc4C(C)C)c3=O)N2C[C@H]1C [Compound 28A] | 7 nM | 9 nM | – | – | – | IC50 [1, 4]: 0.006 µM |
| C=CC(=O)N1C[C@@H]2C(=O)N(C)c3c(c4cc(Cl)c(-c5c(O)cccc5F)c(F)c4n(-c4c(C)ncnc4C(C)C)c3=O)N2C[C@H]1C (atropisomer, axis not shown) [Compound 49A-1] | – | – | 0.005 µM | 3 nM | 7 nM | – |
| C=CC(=O)N1C[C@@H]2COc3c(c4cc(F)c(-c5c(O)cccc5F)nc4n(-c4ccccc4C(C)C)c3=O)N2C[C@H]1C [Compound 2A] | 143 nM | 1020 nM | – | – | – | IC50 [1, 4]: 0.066 µM |
| C=CC(=O)N1C[C@@H]2C(=O)N(C)c3c(c4cc(F)c(-c5c(O)cccc5F)nc4n(-c4ccccc4C(C)C)c3=O)N2C[C@H]1C (atropisomer, axis not shown) [Compound 7B] | 148 nM | 328 nM | – | – | – | IC50 [1, 4]: 0.098 µM |
| C=CC(=O)N1C[C@@H]2C(=O)N(C)c3c(c4cc(Cl)c(-c5ccc(F)c6nc(N)sc56)nc4n(-c4c(C)ccnc4C(C)C)c3=O)N2C[C@H]1C (single isomer, unassigned) [Compound 56A] | – | – | 0.183 µM | 223 nM | 448 nM | – |
| C=CC(=O)N1C[C@@H]2C(=O)N(CCN(C)C)c3c(c4cc(Cl)c(-c5c(O)cccc5F)c(F)c4n(-c4c(C)ccnc4C(C)C)c3=O)N2C[C@H]1C (single isomer, unassigned) [Compound 26C] | – | – | 0.002 µM | 2 nM | 1 nM | – |
| C=CC(=O)N1C[C@@H]2C(=O)N(CCN(C)C)c3c(c4cc(Cl)c(-c5c(O)cccc5F)c(F)c4n(-c4c(C)ccnc4C(C)C)c3=O)N2C[C@H]1C (atropisomer, axis not shown) [Compound 26B] | – | – | 0.019 µM | 22 nM | 28 nM | – |
| C=CC(=O)N1C[C@@H]2C(=O)N(C)c3c(c4cc(F)c(-c5c(O)cccc5F)c(F)c4n(-c4c(C)ccnc4C(C)C)c3=O)N2C[C@H]1C [Compound 21A-2] | – | – | 0.015 µM | 10 nM | 34 nM | – |
| C=CC(=O)N1C[C@@H]2C(=O)N(CCN(C)C)c3c(c4cc(Cl)c(-c5c(O)cccc5F)c(F)c4n(-c4c(C)ccnc4C(C)C)c3=O)N2C[C@H]1C (atropisomer, axis not shown) [Compound 26D] | – | – | 0.068 µM | 82 nM | 79 nM | – |
| C=CC(=O)N1C[C@@H]2CN(CCCO)c3c(c4cc(F)c(-c5c(O)cccc5F)c(F)c4n(-c4c(C)ccnc4C(C)C)c3=O)N2C[C@H]1C (atropisomer, axis not shown) [Compound 35A-1] | – | – | 0.313 µM | 163 nM | 2600 nM | – |
| C=CC(=O)N1CC2C(=O)N(CCN(C)C)c3c(c4cc(F)c(-c5c(O)cccc5F)c(F)c4n(-c4c(C)ccnc4C(C)C)c3=O)N2CC1C (stereo not drawn) [Compound 24D] | – | – | 0.246 µM | 232 nM | 407 nM | – |
| C=CC(=O)N1C[C@@H]2CN(C)c3c(c4cc(F)c(-c5c(O)cccc5F)c(F)c4n(-c4c(C)ccnc4C(C)C)c3=O)N2C[C@H]1C (single isomer, unassigned) [Compound 16A] | 20 nM | 211 nM | 0.017 µM | – | – | – |
| C=CC(=O)N1C[C@@H]2C(=O)N(C)c3c(c4cc(Cl)c(-c5c(O)cccc5F)c(F)c4n(-c4c(C)ccnc4C(C)C)c3=O)N2C[C@H]1C [Compound 23A-2] | – | – | 0.003 µM | 3 nM | 14 nM | – |
| C=CC(=O)N1C[C@@H]2CN(CC(=O)OC)c3c(c4cc(F)c(-c5c(O)cccc5F)c(F)c4n(-c4c(C)ccnc4C(C)C)c3=O)N2C[C@H]1C [Compound 38B] | 77 nM | 535 nM | 0.064 µM | – | – | – |
| C=CC(=O)N1C[C@@H]2COc3c(c4cc(Cl)c(-c5c(O)cccc5F)c(F)c4n(-c4c(C)ccnc4C(C)C)c3=O)N2C[C@H]1C (atropisomer, axis not shown) [Compound 18A-2] | – | – | 0.013 µM | 12 nM | 24 nM | – |
| C=CC(=O)N1C[C@@H]2COc3c(c4cc(F)c(-c5c(O)cccc5F)nc4n(-c4c(C)ccnc4C(C)C)c3=O)N2C[C@H]1C (single isomer, unassigned) [Compound 5A] | – | – | 0.061 µM | 89 nM | 252 nM | – |
| C=CC(=O)N1C[C@@H]2C(=O)N(CCO)c3c(c4cc(F)c(-c5c(O)cccc5F)c(F)c4n(-c4c(C)ccnc4C(C)C)c3=O)N2C[C@H]1C [Compound 40A] | 62 nM | 56 nM | – | – | – | IC50 [1, 4]: 0.052 µM |
